Structures can show the parent of a compound that is named as a salt.
Key:
Experiment in all cases: whole plant or invertebrate
Type in all cases: in vivo
Spodoptera exigua = conditions: 500 ppm, 2nd-instar larvae, leaf immersion feeding; for Spodoptera exigua Mortality (%) 500 ppm: 24 hours
Procedure, shortened: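 Leaf immersion feeding: second-instar larvae (about 35 per vessel, triplicate) kept at 28° C on discs treated with 500 ppm test solution in 0.05% Tween-80. Mortality at 24 h, calculated relative to surviving larvae in the solvent control.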

Solenopsis invicta = conditions: 100 ppm, water test tube poison-feeding
Procedure, shortened: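 Mortality (%) of Solenopsis invicta, computed against live counts in control tubes, was recorded 24 h and 72 h after treatment at 25 °C. Compound was offered by oral feeding in test tubes at 100 ppm, diluted from a 10 g/L DMSO stock into water with 5% honey and 0.05% Tween-80.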

Plutella xylostella = conditions: 500 ppm; 2nd-instar larvae, leaf immersion feeding
Procedure, shortened: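 Leaf immersion feeding test: 2nd-instar larvae (about 35 per vessel, 3 replicates) kept at 28° C. on 1.0 cm cabbage discs soaked 5 s in a 500 ppm solution with 0.05% Tween-80. Mortality after 24 h of exposure, calculated relative to live larvae in the Tween-80 control.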

Aphis craccivora = conditions: 500 ppm, wingless adults; for Aphis craccivora Mortality (%) 500 ppm: impregnation method, 24 hours; for Aphis craccivora Mortality (%): immersion 5 seconds, counted after 24 hours
Procedure, shortened: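 Mortality scored 24 h after treatment as the reduction in live aphids versus a 0.05% Tween-80 control; three replicates, 23° C. Treatment was a 5 s immersion of wingless adults on bean sprouts in 500 ppm test solution containing 0.05% Tween-80, followed by air-drying.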

| SMILES | Spodoptera exigua Mortality (%) 500 ppm (Spodoptera exigua) | Solenopsis invicta Mortality (%) 100 ppm 24 h (Solenopsis invicta) | Solenopsis invicta Mortality (%) 100 ppm 72 h (Solenopsis invicta) | Plutella xylostella Mortality (%) 500 ppm (Plutella xylostella) | Aphis craccivora Mortality (%) 500 ppm (Aphis craccivora) | Spodoptera exigua Mortality (%) (Spodoptera exigua) | Solenopsis invicta Mortality (%) 24 h (Solenopsis invicta) | Solenopsis invicta Mortality (%) 72 h (Solenopsis invicta) | Plutella xylostella Mortality (%) (Plutella xylostella) | Aphis craccivora Mortality (%) (Aphis craccivora) |
| --- | --- | --- | --- | --- | --- | --- | --- | --- | --- | --- |
| N#CC1Nc2c([S+]([O-])C(F)(F)F)c(C(F)(F)F)nn2-c2ncc(C(F)(F)F)cc21 (stereo not shown) [a-95] | 89% | 21% | 92% | 96% | 100% |  |  |  |  |  |
| CC=CC1Nc2c([S+]([O-])C(F)(F)F)c(C(F)(F)F)nn2-c2ncc(C(F)(F)F)cc21 (stereo not shown) [a-109] | 89% | 20% | 90% | 95% | 100% |  |  |  |  |  |
| COC(=O)CC1(C(=O)OC)Nc2c(Cl)c(C#N)nn2-c2ncc(C(F)(F)F)cc21 (stereo not shown) [a-133] | 100% | 24% | 100% | 100% | 100% |  |  |  |  |  |
| COC(=O)CC1(C(=O)OC)Nc2c([S+]([O-])C(F)(F)F)c(C#N)nn2-c2cncc(Cl)c21 (stereo not shown) [b-1] |  |  |  |  |  | 100% | 20% | 97% | 100% | 100% |
| COC(=O)C1(CC#N)Nc2c([S+]([O-])C(F)(F)F)c(C#N)nn2-c2cncc(Cl)c21 (stereo not shown) [b-2] |  |  |  |  |  | 95% | 19% | 93% | 100% | 100% |
| CCOC(=O)C1(CC(=O)OC)Nc2c([S+]([O-])C(F)(F)F)c(C#N)nn2-c2cncc(Cl)c21 (stereo not shown) [b-23] |  |  |  |  |  | 95% | 10% | 97% | 96% | 100% |
| N#Cc1nn2c(c1[S+]([O-])C(F)(F)F)NC(CC(=O)C(F)(F)F)(C(=O)C(F)(F)F)c1c(Cl)cncc1-2 (stereo not shown) [b-25] |  |  |  |  |  | 100% | 26% | 100% | 100% | 100% |
| N#Cc1nn2c(c1[S+]([O-])C(F)(F)F)NC(Cc1ccccc1)(C(=O)C(F)(F)F)c1c(Cl)cncc1-2 (stereo not shown) [b-27] |  |  |  |  |  | 89% | 19% | 100% | 91% | 100% |
| COC(=O)CC1(C(=O)C(F)(F)F)Nc2c([S+]([O-])C(F)(F)F)c(C#N)nn2-c2cncc(Cl)c21 (stereo not shown) [b-28] |  |  |  |  |  | 99% | 16% | 100% | 100% | 100% |
| N#CCC1(C(=O)C(F)(F)F)Nc2c([S+]([O-])C(F)(F)F)c(C#N)nn2-c2cncc(Cl)c21 (stereo not shown) [b-30] |  |  |  |  |  | 85% | 25% | 94% | 90% | 100% |
| CC(=O)C1(CBr)Nc2c([S+]([O-])C(F)(F)F)c(C#N)nn2-c2cncc(Cl)c21 (stereo not shown) [b-34] |  |  |  |  |  | 87% | 10% | 100% | 90% | 100% |
| CC(=O)C1(CC(=O)C(F)(F)F)Nc2c([S+]([O-])C(F)(F)F)c(C#N)nn2-c2cncc(Cl)c21 (stereo not shown) [b-37] |  |  |  |  |  | 90% | 20% | 94% | 86% | 99% |
| CNC1(CC#N)Nc2c([S+]([O-])C(F)(F)F)c(C#N)nn2-c2cncc(Cl)c21 (stereo not shown) [b-43] |  |  |  |  |  | 80% | 19% | 90% | 89% | 89% |
| N#CCC1(Cl)Nc2c([S+]([O-])C(F)(F)F)c(C#N)nn2-c2cncc(Cl)c21 (stereo not shown) [b-47] |  |  |  |  |  | 85% | 18% | 90% | 95% | 100% |
| N#Cc1nn2c(c1[S+]([O-])C(F)(F)F)NC(Cl)(CC(F)(F)F)c1c(Cl)cncc1-2 (stereo not shown) [b-48] |  |  |  |  |  | 89% | 15% | 90% | 100% | 100% |
| COC(=O)C(C)C1Nc2c([S+]([O-])C(F)(F)F)c(C#N)nn2-c2cncc(Cl)c21 (stereo not shown) [b-66] |  |  |  |  |  | 91% | 28% | 97% | 96% | 100% |
| N#Cc1nn2c(c1[S+]([O-])C(F)(F)F)NC(CC(=O)C(F)(F)F)c1c(Cl)cncc1-2 (stereo not shown) [b-70] |  |  |  |  |  | 95% | 44% | 100% | 100% | 100% |
| N#CCC1Nc2c([S+]([O-])C(F)(F)F)c(C#N)nn2-c2cncc(Cl)c21 (stereo not shown) [b-73] |  |  |  |  |  | 85% | 20% | 90% | 89% | 100% |
| N#Cc1nn2c(c1[S+]([O-])C(F)(F)F)NC(Cl)c1c(Cl)cncc1-2 (stereo not shown) [b-80] |  |  |  |  |  | 90% | 14% | 90% | 95% | 100% |
| CC=CC1Nc2c([S+]([O-])C(F)(F)F)c(C#N)nn2-c2cncc(Cl)c21 (stereo not shown) [b-86] |  |  |  |  |  | 89% | 20% | 97% | 96% | 100% |
| COC(=O)C1Nc2c([S+]([O-])C(F)(F)F)c(C(F)(F)F)nn2-c2cncc(Cl)c21 (stereo not drawn) [b-87, 6-chloro-2-trifluoromethyl-3-trifluoromethylsulfinyl-4,5-dihydropyrazole[1,5-α]quinazoline[4,3-e]pyridine-5-methyl formate] |  |  |  |  |  | 95% | 14% | 100% | 95% | 100% |
| COC(=O)CC1Nc2c([S+]([O-])C(F)(F)F)c(C(F)(F)F)nn2-c2cncc(Cl)c21 (stereo not shown) [b-88] |  |  |  |  |  | 100% | 25% | 100% | 100% | 100% |
| O=C(C1Nc2c([S+]([O-])C(F)(F)F)c(C(F)(F)F)nn2-c2cncc(Cl)c21)C(F)(F)F (stereo not shown) [b-94] |  |  |  |  |  | 90% | 20% | 100% | 100% | 100% |

— patent US11401271B2, “Fused heterocyclic compound, pyrazole-ring-containing fused heterocyclic compound, agricultural composition containing thereof, and method of using the composition” (SOUTH CHINA AGRICULTURAL UNIVERSITY, priority 2017, dated 2022)
